Measurements from ChEMBL document CHEMBL1201861, “Genomics of Drug Sensitity in Cancer screening data, Wellcome Trust Sanger Institute”.

Assays:
Experiment in all cases: cells
Assay type in all cases: functional, cell-based
Details in all cases: Homo sapiens
[1] = system: LAMA-84;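 note: growth inhibition of LAMA-84 cells, read out with a cell viability assay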
Description: SANGER: Inhibition of human LAMA-84 cell growth in a cell viability assay.

[2] = system: NB10;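 note: growth inhibition of NB10 cells, read out by a cell viability assay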
Description: SANGER: Inhibition of human NB10 cell growth in a cell viability assay.

[3] = system: SNB-75;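 note: cell viability assay measuring growth inhibition of human SNB-75 cells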
Description: SANGER: Inhibition of human SNB75 cell growth in a cell viability assay.

[4] = system: NCI-H1650;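 note: growth inhibition of human NCI-H1650 cells measured by a cell viability assay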
Description: SANGER: Inhibition of human NCI-H1650 cell growth in a cell viability assay.

[5] = system: TE-8;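 note: growth inhibition of TE-8 cells, measured with a cell viability readout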
Description: SANGER: Inhibition of human TE-8 cell growth in a cell viability assay.

[6] = system: MSTO-211H
Description: SANGER: Inhibition of human MSTO-211H cell growth in a cell viability assay.

[7] = system: LB2241-RCC;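 note: cell viability assay measuring how strongly the cultured human renal carcinoma line is prevented from growing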
Description: SANGER: Inhibition of human LB2241-RCC cell growth in a cell viability assay.

[8] = system: KINGS-1;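 note: cell viability assay measuring suppression of KINGS-1 cell growth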
Description: SANGER: Inhibition of human KINGS-1 cell growth in a cell viability assay.

[9] = system: NCI-H226;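 note: cell viability read-out used to gauge growth inhibition of the cells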
Description: SANGER: Inhibition of human NCI-H226 cell growth in a cell viability assay.

[10] = system: BB30-HNC;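 note: growth inhibition of the cultured cell line, read out by a cell viability assay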
Description: SANGER: Inhibition of human BB30-HNC cell growth in a cell viability assay.

[11] = system: A101D;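 note: growth inhibition of the cell line, measured with a viability assay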
Description: SANGER: Inhibition of human A101D cell growth in a cell viability assay.

[12] = system: ALL-PO;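 note: growth inhibition of ALL-PO cells, read out by a cell viability assay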
Description: SANGER: Inhibition of human ALL-PO cell growth in a cell viability assay.

[13] = system: COLO-320-HSR;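 note: growth inhibition of COLO-320-HSR cells, determined with a cell viability assay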
Description: SANGER: Inhibition of human COLO-320-HSR cell growth in a cell viability assay.

[14] = system: HDLM-2;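 note: cell viability assay measuring suppression of HDLM-2 proliferation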
Description: SANGER: Inhibition of human HDLM-2 cell growth in a cell viability assay.

[15] = system: NCI-H747;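 note: growth inhibition of human NCI-H747 cells, read out by a cell viability assay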
Description: SANGER: Inhibition of human NCI-H747 cell growth in a cell viability assay.

[16] = system: TGBC1TKB;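 note: growth inhibition of TGBC1TKB cells, read out by a cell viability assay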
Description: SANGER: Inhibition of human TGBC1TKB cell growth in a cell viability assay.

[17] = system: CGTH-W-1;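 note: growth inhibition of human CGTH-W-1 cells measured by cell viability assay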
Description: SANGER: Inhibition of human CGTH-W-1 cell growth in a cell viability assay.

[18] = system: A388;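 note: growth inhibition of human A388 cells, read out with a cell viability assay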
Description: SANGER: Inhibition of human A388 cell growth in a cell viability assay.

[19] = system: LS-1034
Description: SANGER: Inhibition of human LS-1034 cell growth in a cell viability assay.

[20] = system: TGBC24TKB;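 note: growth inhibition of human TGBC24TKB cells, read out with a cell viability assay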
Description: SANGER: Inhibition of human TGBC24TKB cell growth in a cell viability assay.

[21] = system: NCI-H720;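 note: growth inhibition of human NCI-H720 cells determined by a cell viability assay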
Description: SANGER: Inhibition of human NCI-H720 cell growth in a cell viability assay.

[22] = system: HCC2218;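 note: cell viability assay read-out, with IC50 given as the concentration that inhibits growth of the cell line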
Description: SANGER: Inhibition of human HCC2218 cell growth in a cell viability assay.

[23] = system: HCC1187;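 note: growth inhibition of HCC1187 cells, read out with a cell viability assay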
Description: SANGER: Inhibition of human HCC1187 cell growth in a cell viability assay.

[24] = system: L-428
Description: SANGER: Inhibition of human L-428 cell growth in a cell viability assay.

[25] = system: RH-1;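 note: growth inhibition of human RH-1 cells, read out with a cell viability assay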
Description: SANGER: Inhibition of human RH-1 cell growth in a cell viability assay.

[26] = system: GR-ST
Description: SANGER: Inhibition of human GR-ST cell growth in a cell viability assay.

[27] = system: DSH1;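 note: growth inhibition of human DSH1 cells, measured with a cell viability readout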
Description: SANGER: Inhibition of human DSH1 cell growth in a cell viability assay.

[28] = system: CTB-1
Description: SANGER: Inhibition of human CTB-1 cell growth in a cell viability assay.

[29] = system: HOP-62;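 note: cell growth inhibition determined with a viability assay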
Description: SANGER: Inhibition of human HOP-62 cell growth in a cell viability assay.

[30] = system: CAS-1;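 note: growth inhibition of CAS-1 cells, measured with a cell viability assay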
Description: SANGER: Inhibition of human CAS-1 cell growth in a cell viability assay.

[31] = system: KGN;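 note: growth inhibition of KGN cells, read out with a cell viability assay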
Description: SANGER: Inhibition of human KGN cell growth in a cell viability assay.

[32] = system: COLO-668
Description: SANGER: Inhibition of human COLO-668 cell growth in a cell viability assay.

[33] = system: EOL1;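 note: growth inhibition of EoL-1 cells, read out by a cell viability assay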
Description: SANGER: Inhibition of human EoL-1-cell cell growth in a cell viability assay.

[34] = system: RKO;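 note: growth inhibition of human RKO cells, read out with a cell viability assay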
Description: SANGER: Inhibition of human RKO cell growth in a cell viability assay.

[35] = system: LB1047-RCC;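 note: inhibition of cell growth, determined with a cell viability assay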
Description: SANGER: Inhibition of human LB1047-RCC cell growth in a cell viability assay.

[36] = system: AM-38;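 note: growth inhibition of AM-38 cells of human origin, read out by a cell viability assay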
Description: SANGER: Inhibition of human AM-38 cell growth in a cell viability assay.

[37] = system: NCI-H1355;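 note: growth inhibition of human NCI-H1355 cells, read out by a cell viability assay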
Description: SANGER: Inhibition of human NCI-H1355 cell growth in a cell viability assay.

[38] = system: Becker;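 note: growth inhibition of Becker cells, read out with a cell viability assay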
Description: SANGER: Inhibition of human Becker cell growth in a cell viability assay.

[39] = system: MC116;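 note: growth inhibition of MC116 cells, read out with a cell viability assay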
Description: SANGER: Inhibition of human MC116 cell growth in a cell viability assay.

[40] = system: NB13;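 note: cell viability readout measuring growth inhibition of human NB13 cells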
Description: SANGER: Inhibition of human NB13 cell growth in a cell viability assay.

[41] = system: COLO-800;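 note: growth inhibition of COLO-800 cells, read out with a cell viability assay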
Description: SANGER: Inhibition of human COLO-800 cell growth in a cell viability assay.

[42] = system: EM-2;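 note: growth inhibition of EM-2 cells, read out with a cell viability assay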
Description: SANGER: Inhibition of human EM-2 cell growth in a cell viability assay.

[43] = system: NCI-H1395;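 note: cell viability assay read-out quantifying reduced proliferation of human NCI-H1395 cells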
Description: SANGER: Inhibition of human NCI-H1395 cell growth in a cell viability assay.

[44] = system: KNS-42;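 note: growth inhibition of KNS-42 cells, read out with a cell viability assay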
Description: SANGER: Inhibition of human KNS-42 cell growth in a cell viability assay.

[45] = system: NCI-H69;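 note: growth inhibition of the cell line, read out with a cell viability assay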
Description: SANGER: Inhibition of human NCI-H69 cell growth in a cell viability assay.

[46] = system: TE-12;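 note: growth inhibition of TE-12 cells, read out by a cell viability assay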
Description: SANGER: Inhibition of human TE-12 cell growth in a cell viability assay.

[47] = system: HD-MY-Z;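 note: growth inhibition of HD-MY-Z cells, read out with a cell viability assay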
Description: SANGER: Inhibition of human HD-MY-Z cell growth in a cell viability assay.

[48] = system: HC-1;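 note: growth inhibition of HC-1 cells measured by a cell viability assay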
Description: SANGER: Inhibition of human HC-1 cell growth in a cell viability assay.

[49] = system: U-266
Description: SANGER: Inhibition of human U-266 cell growth in a cell viability assay.

[50] = system: KY821;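 note: growth inhibition of human KY821 cells, read out by a cell viability assay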
Description: SANGER: Inhibition of human KY821 cell growth in a cell viability assay.

[51] = system: Mo
Description: SANGER: Inhibition of human Mo-T cell growth in a cell viability assay.

[52] = system: DMS-114
[53] = system: NCI-H82;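 note: growth inhibition of NCI-H82 cells, measured with a cell viability readout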
Description: SANGER: Inhibition of human NCI-H82 cell growth in a cell viability assay.

[54] = system: SK-LMS-1;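 note: growth inhibition of human SK-LMS-1 cells, read out with a cell viability assay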
Description: SANGER: Inhibition of human SK-LMS-1 cell growth in a cell viability assay.

[55] = system: TE-9;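 note: cell growth inhibition, measured with a cell viability readout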
Description: SANGER: Inhibition of human TE-9 cell growth in a cell viability assay.

[56] = system: CTV-1;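 note: growth inhibition of the cell line, read out with a cell viability assay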
Description: SANGER: Inhibition of human CTV-1 cell growth in a cell viability assay.

[57] = system: GB-1;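 note: growth of GB-1 cells judged by a viability assay, IC50 marks the concentration inhibiting growth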
Description: SANGER: Inhibition of human GB-1 cell growth in a cell viability assay.

[58] = system: NEC8;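 note: growth inhibition of human NEC8 cells, read out by a cell viability assay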
Description: SANGER: Inhibition of human NEC8 cell growth in a cell viability assay.

[59] = system: SF-539
Description: SANGER: Inhibition of human SF539 cell growth in a cell viability assay.

[60] = system: SNU-C2B
Description: SANGER: Inhibition of human SNU-C2B cell growth in a cell viability assay.

[61] = system: ES1
Description: SANGER: Inhibition of human ES1 cell growth in a cell viability assay.

[62] = system: SJSA-1
Description: SANGER: Inhibition of human SJSA-1 cell growth in a cell viability assay.

[63] = system: KNS-81-FD
Description: SANGER: Inhibition of human KNS-81-FD cell growth in a cell viability assay.

[64] = system: MFM-223
Description: SANGER: Inhibition of human MFM-223 cell growth in a cell viability assay.

[65] = system: SF-126
Description: SANGER: Inhibition of human SF126 cell growth in a cell viability assay.

[66] = system: SK-N-DZ
Description: SANGER: Inhibition of human SK-N-DZ cell growth in a cell viability assay.

## COc1cc(C)c(Sc2cnc(NC(=O)c3ccc(CNC(C)C(C)(C)C)cc3)s2)cc1C(=O)N1CCN(C(C)=O)CC1 (configuration not stated)
[1]
  IC50: > 10200 nM
[2]
  IC50: > 10200 nM
[3]
  IC50: 7110 nM
[4]
  IC50: > 10200 nM
[5]
  IC50: 6440 nM
[6]
  IC50: > 10200 nM
[7]
  IC50: > 10200 nM
[8]
  IC50: > 10200 nM
[9]
  IC50: > 10200 nM
[10]
  IC50: 9340 nM
[11]
  IC50: 4810 nM
[12]
  IC50: > 10200 nM
[13]
  IC50: > 10200 nM
[14]
  IC50: > 10200 nM
[15]
  IC50: 3860 nM
[16]
  IC50: > 10200 nM
[17]
  IC50: > 10200 nM
[18]
  IC50: > 10200 nM
[19]
  IC50: 7420 nM
[20]
  IC50: > 10200 nM
[21]
  IC50: > 10200 nM
[22]
  IC50: > 10200 nM
[23]
  IC50: > 10200 nM
[24]
  IC50: > 10200 nM
[25]
  IC50: > 10200 nM
[26]
  IC50: > 10200 nM
[27]
  IC50: > 10200 nM
[28]
  IC50: > 10200 nM
[29]
  IC50: > 10200 nM
[30]
  IC50: > 10200 nM
[31]
  IC50: > 10200 nM
[32]
  IC50: > 10200 nM
[33]
  IC50: > 10200 nM
[34]
  IC50: 8840 nM
[35]
  IC50: > 10200 nM
[36]
  IC50: > 10200 nM
[37]
  IC50: 6220 nM
[38]
  IC50: > 10200 nM
[39]
  IC50: > 10200 nM
[40]
  IC50: > 10200 nM
[41]
  IC50: > 10200 nM
[42]
  IC50: > 10200 nM
[43]
  IC50: > 10200 nM
[44]
  IC50: > 10200 nM
[45]
  IC50: > 10200 nM
[46]
  IC50: 2420 nM
[47]
  IC50: 9440 nM
[48]
  IC50: > 10200 nM
[49]
  IC50: > 10200 nM
[50]
  IC50: > 10200 nM
[51]
  IC50: > 10200 nM
[52]
  IC50: > 10200 nM
[53]
  IC50: > 10200 nM
[54]
  IC50: > 10200 nM
[55]
  IC50: > 10200 nM
[56]
  IC50: 6300 nM
[57]
  IC50: 9120 nM
[58]
  IC50: > 10200 nM
[59]
  IC50: > 10200 nM
[60]
  IC50: 4640 nM
[61]
  IC50: 7440 nM
[62]
  IC50: 7630 nM
[63]
  IC50: > 10200 nM
[64]
  IC50: > 10200 nM
[65]
  IC50: > 10200 nM
[66]
  IC50: > 10200 nM

## Cc1n[nH]c2ccc(-c3cncc(OC[C@@H](N)Cc4c[nH]c5ccccc45)c3)cc12 [A-443654]
[1]
  IC50: 610 nM
[2]
  IC50: > 1020 nM
[3]
  IC50: 116 nM
[4]
  IC50: > 1020 nM
[5]
  IC50: 137 nM
[6]
  IC50: > 1020 nM
[7]
  IC50: > 1020 nM
[8]
  IC50: 292 nM
[9]
  IC50: > 1020 nM
[10]
  IC50: 220 nM
[11]
  IC50: 133 nM
[12]
  IC50: 797 nM
[13]
  IC50: 937 nM
[14]
  IC50: > 1020 nM
[15]
  IC50: 82.5 nM
[16]
  IC50: 120 nM
[17]
  IC50: 246 nM
[18]
  IC50: 84.3 nM
[19]
  IC50: 630 nM
[20]
  IC50: 810 nM
[21]
  IC50: 154 nM
[22]
  IC50: 266 nM
[23]
  IC50: > 1020 nM
[24]
  IC50: > 1020 nM
[25]
  IC50: > 1020 nM
[26]
  IC50: 448 nM
[27]
  IC50: 361 nM
[28]
  IC50: 509 nM
[29]
  IC50: 140 nM
[30]
  IC50: > 1020 nM
[31]
  IC50: 118 nM
[32]
  IC50: 405 nM
[33]
  IC50: 165 nM
[34]
  IC50: 136 nM
[35]
  IC50: 87.2 nM
[36]
  IC50: > 1020 nM
[37]
  IC50: 113 nM
[38]
  IC50: 303 nM
[39]
  IC50: 137 nM
[40]
  IC50: 332 nM
[41]
  IC50: > 1020 nM
[42]
  IC50: 583 nM
[43]
  IC50: > 1020 nM
[44]
  IC50: 248 nM
[45]
  IC50: 318 nM
[46]
  IC50: 194 nM
[47]
  IC50: > 1020 nM
[48]
  IC50: 208 nM
[49]
  IC50: > 1020 nM
[50]
  IC50: 246 nM
[51]
  IC50: > 1020 nM
[52]
  IC50: 983 nM
[53]
  IC50: 164 nM
[54]
  IC50: 276 nM
[55]
  IC50: 389 nM
[56]
  IC50: 323 nM
[57]
  IC50: 199 nM
[58]
  IC50: > 1020 nM
[59]
  IC50: > 1020 nM
[60]
  IC50: 290 nM
[61]
  IC50: 739 nM
[62]
  IC50: 376 nM
[63]
  IC50: > 1020 nM
[64]
  IC50: > 1020 nM
[65]
  IC50: 311 nM
[66]
  IC50: > 1020 nM
